Source: PubChem BioAssay (NCI)
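Compound exposure: 48 hours, 5 concentrations, 96-well plates. GI50 = concentration required for 50% inhibition of growth. TGI marks complete inhibition of growth.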

Columns and labels:
Test in all cases: NCI-60 cell line screen, 48 h
[1] = tested on: MOLT-4 leukemia
[2] = tested on: HOP-62 NSCLC
[3] = tested on: NCI-H226 lung
[4] = tested on: IGROV1 ovarian
[5] = tested on: SNB-19 CNS
[6] = tested on: SF-295 CNS
[7] = tested on: MDA-MB-231 breast
[8] = tested on: SK-MEL-2 melanoma
[9] = tested on: BT-549 breast
[10] = tested on: OVCAR-3 ovarian
[11] = tested on: HT29 colon
[12] = tested on: A549 NSCLC
[13] = tested on: SN12C renal
[14] = tested on: RXF 393 renal
[15] = tested on: LOX IMVI melanoma
[16] = tested on: SW-620 colon
[17] = tested on: DU-145 prostate
[18] = tested on: SK-OV-3 ovarian
[19] = tested on: SF-268 CNS
[20] = tested on: NCI-H522 lung
[21] = tested on: K-562 leukemia
[22] = tested on: HS 578T breast
[23] = tested on: SK-MEL-5 melanoma
[24] = tested on: OVCAR-8 ovarian
[25] = tested on: SNB-75 CNS
[26] = tested on: UACC-62 melanoma
[27] = tested on: MDA-MB-435
[28] = tested on: NCI-H460 lung
[29] = tested on: PC-3 prostate
[30] = tested on: UO-31 renal
[31] = tested on: CAKI-1 renal
[32] = tested on: CCRF-CEM leukemia
[33] = tested on: ACHN renal
[34] = tested on: HCC-2998 colon
[35] = tested on: COLO 205 colon
[36] = tested on: NCI-H23 lung
[37] = tested on: HOP-92 NSCLC
[38] = tested on: KM12 colon
[39] = tested on: T-47D breast
[40] = tested on: HCT-15 colon
[41] = tested on: MALME-3M melanoma
[42] = tested on: SR leukemia
[43] = tested on: OVCAR-5 ovarian
[44] = tested on: 786-0 renal
[45] = tested on: HCT-116 colon
[46] = tested on: M14 melanoma
[47] = tested on: UACC-257 melanoma
[48] = tested on: RPMI-8226 leukemia
[49] = tested on: MCF7 breast
[50] = tested on: OVCAR-4 ovarian
[51] = tested on: SK-MEL-28 melanoma
[52] = tested on: SF-539 CNS
[53] = tested on: A498 renal
[54] = tested on: NCI/ADR-RES ovarian
[55] = tested on: U251 CNS
[56] = tested on: HL-60(TB) leukemia
[57] = tested on: TK-10 renal

COc1cccc(C(=O)NC(c2ccc(C)cc2)c2cc(Cl)c3cccnc3c2O)c1 (centres undefined)
GI50 [1]: 622 nM | TGI [1]: 8050 nM | GI50 [2]: 496 nM | TGI [2]: 9580 nM | GI50 [3]: 568 nM | TGI [3]: 2570 nM | GI50 [4]: 500 nM | TGI [4]: 12400 nM | GI50 [5]: 371 nM | TGI [5]: 29000 nM | GI50 [6]: 382 nM | TGI [6]: 15300 nM | GI50 [7]: 612 nM | TGI [7]: 15400 nM | GI50 [8]: 767 nM | TGI [8]: 9160 nM | GI50 [9]: 1320 nM | TGI [9]: 18600 nM | GI50 [10]: 346 nM | TGI [10]: 18600 nM | GI50 [11]: 623 nM | TGI [11]: 19800 nM | GI50 [12]: 473 nM | TGI [12]: 11200 nM | GI50 [13]: 661 nM | TGI [13]: 13200 nM | GI50 [14]: 736 nM | TGI [14]: 3440 nM | GI50 [15]: 563 nM | TGI [15]: 11600 nM | GI50 [16]: 425 nM | TGI [16]: 23400 nM | GI50 [17]: 1140 nM | TGI [17]: 14300 nM | GI50 [18]: 682 nM | TGI [18]: 11300 nM | GI50 [19]: 619 nM | TGI [19]: 12400 nM | GI50 [20]: 291 nM | TGI [20]: 1650 nM | GI50 [21]: 466 nM | TGI [21]: 54800 nM | GI50 [22]: 362 nM | TGI [22]: 30500 nM | GI50 [23]: 318 nM | TGI [23]: 1320 nM | GI50 [24]: 476 nM | TGI [24]: 26700 nM | GI50 [25]: 326 nM | TGI [25]: 11900 nM | GI50 [26]: 357 nM | TGI [26]: 3130 nM | GI50 [27]: 560 nM | TGI [27]: 23700 nM | GI50 [28]: 359 nM | TGI [28]: 4660 nM | GI50 [29]: 423 nM | TGI [29]: 16200 nM | GI50 [30]: 362 nM | TGI [30]: 10800 nM | GI50 [31]: 465 nM | TGI [31]: 15800 nM | GI50 [32]: 366 nM | TGI [32]: 11700 nM | GI50 [33]: 445 nM | TGI [33]: 10400 nM | GI50 [34]: 786 nM | TGI [34]: 15100 nM | GI50 [35]: 387 nM | TGI [35]: 1860 nM | GI50 [36]: 552 nM | TGI [36]: 22200 nM | GI50 [37]: 474 nM | TGI [37]: 9330 nM | GI50 [38]: 545 nM | TGI [38]: 16800 nM | GI50 [39]: 517 nM | TGI [39]: 12100 nM | GI50 [40]: 309 nM | TGI [40]: 28200 nM | GI50 [41]: 1420 nM | TGI [41]: 15600 nM | GI50 [42]: 538 nM | TGI [42]: 5660 nM | GI50 [43]: 1130 nM | TGI [43]: 24400 nM | GI50 [44]: 725 nM | TGI [44]: 5500 nM | GI50 [45]: 495 nM | TGI [45]: 14400 nM | GI50 [46]: 677 nM | TGI [46]: 10800 nM | GI50 [47]: 653 nM | TGI [47]: 12700 nM | GI50 [48]: 621 nM | TGI [48]: 19100 nM | GI50 [49]: 371 nM | TGI [49]: > 30400 nM | GI50 [50]: 298 nM | TGI [50]: 10200 nM | GI50 [51]: 743 nM | TGI [51]: 17100 nM | GI50 [52]: 445 nM | TGI [52]: 3270 nM | GI50 [53]: 1280 nM | TGI [53]: 11600 nM | GI50 [54]: 330 nM | TGI [54]: > 88600 nM | GI50 [55]: 333 nM | TGI [55]: 11200 nM | GI50 [56]: 427 nM | TGI [56]: 2840 nM | GI50 [57]: 393 nM | TGI [57]: 4800 nM
